Legend:
[1] = Hepatic clearance in human liver microsomes after 1 hr by LC-MS/MS analysis; format: ADME
[2] = Clearance in CD1 mouse blood at 2 mg/kg, iv after 8 hrs by LC/MS/MS; format: ADME, organism-based; details: whole blood
[3] = Half life in CD1 mouse blood at 2 mg/kg, iv after 8 hrs by LC/MS/MS; format: ADME, organism-based; details: whole blood
[4] = AUC (0 to 8 hrs) in CD1 mouse blood at 25 mg/kg, po after 8 hrs by LC/MS/MS; format: ADME, organism-based; set-up: time < 8 hr, dose 25 mg/kg, route oral; details: whole blood
[5] = Oral bioavailability in CD1 mouse blood at 25 mg/kg after 8 hrs by LC/MS/MS; format: ADME, organism-based; details: whole blood
[6] = Plasma clearance in cynomolgus monkey; format: ADME, organism-based, Macaca fascicularis
[7] = Oral bioavailability in cynomolgus monkey; format: ADME, organism-based, Macaca fascicularis; details: in vivo

| SMILES | CLhep predicted [1] [mL/min/kg] | also measured |
| --- | --- | --- |
| CNc1ncc2cc(-c3ccc(-c4cccc(C)n4)cc3Cl)c(=O)n(C[C@H]3OC[C@H](NC)CO3)c2n1 | 13.8 | – |
| CNc1ncc2cc(-c3ccc(-c4cccc(C)n4)cc3Cl)c(=O)n(C[C@@H]3CCNCC3(F)F)c2n1 | 17.8 | – |
| CCNc1ncc2cc(-c3ccc(-c4cncc(C)n4)cc3Cl)c(=O)n(CC3CCNC(=O)C3)c2n1 (centres undefined) | 12.5 | – |
| CCNc1ncc2cc(-c3ccc(-c4cncc(C)n4)cc3Cl)c(=O)n(C[C@H]3OC[C@H](N)CO3)c2n1 | 9.6 | – |
| CNc1ncc2cc(-c3ccc(-c4cccc(C)n4)cc3Cl)c(=O)n(CC3COC4(CNC4)OC3)c2n1 | 11.6 | – |
| CNc1ncc2cc(-c3ccc(-c4cccc(C)n4)cc3Cl)c(=O)n(C[C@H]3OC[C@H](N)CO3)c2n1 | 11.6 | clearance [2]: 24.2 mL/min/kg; half-life [3]: 53 min; AUC(0-t) at 8 h [4]: 30 µM·h; bioavailability [5]: 80%; clearance [6]: 3.4 mL/min/kg; bioavailability [7]: 72% |
| CCNc1ncc2cc(-c3ccc(-c4cncc(C)n4)cc3Cl)c(=O)n(CCCO)c2n1 | 14.7 | – |
| CNc1ncc2cc(-c3ccc(-c4cncc(C)n4)cc3Cl)c(=O)n(C[C@H]3CNCCO3)c2n1 | 10.7 | – |

Reference: ChEMBL document CHEMBL3769359, “Design of Selective PAK1 Inhibitor G-5555: Improving Properties by Employing an Unorthodox Low-pK a Polar Moiety” (ACS Med Chem Lett, 2015)
